Laboratory results published in patent publication US20240158446A1, “CYCLIC COMPOUND HAVING SELECTIVE INHIBITORY ACTION ON KRAS OVER HRAS AND NRAS” (CHUGAI SEIYAKU KABUSHIKI KAISHA, priority 2021, published 2024).
Like-named read-outs stand apart in the source and are kept apart here. *1 amine or outer side, *2 acyl side, *3 side chain or, on linkers, in order; H or OH if unused. Where a SMILES comes first, the peptide text is derived from it. Bridges are numbered along the chain shown (N, C = ends). [ ]: non-standard residue; d: D form. The star is where a group is joined. hPhe(3,5-F2-4-CF3) = N[C@@H](CCc1cc(F)c(C(F)(F)F)c(F)c1)C(=O)O; hPhe(3-Cl-4-CF3) = N[C@@H](CCc1ccc(C(F)(F)F)c(Cl)c1)C(=O)O; NPrPhe(4-CF3) = CCCN[C@@H](Cc1ccc(C(F)(F)F)cc1)C(=O)O; X18 = Cc1ccc(C[C@@H](C(=O)[*:2])N(CC(C)C)[*:1])cc1; NMeAbu(4,4,4-F3) = CN[C@@H](CC(F)(F)F)C(=O)O; NMeGly(cPent) = CN[C@H](C(=O)O)C1CCCC1; Gly(N-propargyl) = C#CCNCC(=O)O; NMeD = CN[C@@H](CC(=O)O)C(=O)O; NMeL = CN[C@@H](CC(C)C)C(=O)O; Morpholide = C1CN(*)CCO1; Ac5c = NC1(C(=O)O)CCCC1; Aze = O=C(O)[C@@H]1CCN1; NEtG = CCNCC(=O)O; Sar = CNCC(=O)O

Key:
[1] = molecular target: GDP-bound NRAS wild-type protein (Homo sapiens, UniProt P01111); assay: Binding to NRAS by surface plasmon resonance (SPR), Single Cycle Kinetics; settings: for NRAS/KRAS (ratio of KD value for NRAS to KD value for KRAS) / NRAS/KRAS (ratio of KD value with respect to NRAS to KD value with respect to KRAS): SPR, GDP-bound NRAS wild-type protein vs GDP-bound KRAS wild-type protein
GDP-bound NRAS wild-type protein, sequence (P01111 whole entry): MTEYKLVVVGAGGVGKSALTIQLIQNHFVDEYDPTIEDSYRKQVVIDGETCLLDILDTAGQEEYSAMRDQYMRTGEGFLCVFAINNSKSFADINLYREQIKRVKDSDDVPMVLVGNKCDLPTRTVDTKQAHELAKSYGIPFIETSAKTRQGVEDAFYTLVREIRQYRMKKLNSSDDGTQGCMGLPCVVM

[2] = molecular target: GDP-bound HRAS wild-type protein (Homo sapiens, UniProt P01112); assay: Binding to HRAS by surface plasmon resonance (SPR), Single Cycle Kinetics; settings: for HRAS/KRAS (ratio of KD value for HRAS to KD value for KRAS) / HRAS/KRAS (ratio of KD value with respect to HRAS to KD value with respect to KRAS): SPR, GDP-bound HRAS wild-type protein vs GDP-bound KRAS wild-type protein
GDP-bound HRAS wild-type protein, sequence (P01112 whole entry): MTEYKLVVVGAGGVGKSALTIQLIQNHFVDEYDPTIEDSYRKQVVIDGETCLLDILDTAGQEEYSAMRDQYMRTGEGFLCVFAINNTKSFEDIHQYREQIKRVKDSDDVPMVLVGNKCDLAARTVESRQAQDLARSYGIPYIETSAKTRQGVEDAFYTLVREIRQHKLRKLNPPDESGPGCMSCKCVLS

[3] = molecular target: GDP-bound KRAS wild-type protein (Homo sapiens, UniProt P01116); assay: Binding to KRAS by surface plasmon resonance (SPR), Single Cycle Kinetics; settings: GDP-bound KRAS wild-type protein, read-out: KRAS KD
GDP-bound KRAS wild-type protein, sequence (P01116 whole entry): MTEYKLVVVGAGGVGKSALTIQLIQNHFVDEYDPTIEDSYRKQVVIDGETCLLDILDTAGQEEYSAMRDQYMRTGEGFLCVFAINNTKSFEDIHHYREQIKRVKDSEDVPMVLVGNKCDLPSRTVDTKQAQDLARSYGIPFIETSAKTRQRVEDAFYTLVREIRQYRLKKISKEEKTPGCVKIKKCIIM

[4] = SPR Single Cycle Kinetics, 1:1 binding model

| Structure (SMILES) | Kd [3, 4] | NRAS/KRAS (ratio of KD value for NRAS to KD value for KRAS) [1] | HRAS/KRAS (ratio of KD value for HRAS to KD value for KRAS) [2] | NRAS/KRAS (ratio of KD value with respect to NRAS to KD value with respect to KRAS) [1] | HRAS/KRAS (ratio of KD value with respect to HRAS to KD value with respect to KRAS) [2] | also measured |
| --- | --- | --- | --- | --- | --- | --- |
| CCO[C@@H]1C[C@H]2C(=O)NC3(CC(C)(C)C3)C(=O)N(C)[C@@H](C3CCCC3)C(=O)N(C)[C@H](C(=O)N3CCCCC3)CC(=O)N(C)[C@H]3CC/C=C/c4ccc(cc4)C[C@@H](C(=O)N(C)CC(=O)N[C@@H](CCc4ccc(Cl)c(Cl)c4)C(=O)N2C1)N1CC/C=C\C[C@@H](C1=O)N(C)C(=O)CN(C)C(=O)[C@H]([C@@H](C)CC)NC3=O [PP2597] | 0.51 nM |  |  |  |  | NRAS/KRAS (ratio of KD value with respect to GDP-bound NRAS wild-type protein to KD value with respect to KRAS) ([1]; SPR KD ratio NRAS/KRAS, class symbols): A (a compound having 10 or more and less than 20 is denoted as A); HRAS/KRAS (ratio of KD value with respect to GDP-bound HRAS wild-type protein to KD value with respect to KRAS) ([2]; SPR KD ratio HRAS/KRAS, class symbols): A (a compound having 10 or more and less than 20 is denoted as A) |
| CCO[C@@H]1C[C@H]2C(=O)NC3(CC(C)(C)C3)C(=O)N(C)[C@@H](C(CC)CC)C(=O)N(C)[C@H](C(=O)N(C)C)CC(=O)N(C)[C@@H](C)C(=O)N[C@@H]([C@@H](C)CC)C(=O)N(C)CC(=O)N(C)[C@H]3C/C=C\CCN(C3=O)[C@@H](Cc3ccc(C)cc3)C(=O)N(C)CC(=O)N[C@@H](CCc3ccc(Cl)c(Cl)c3)C(=O)N2C1 [PP2186] |  | AA (a compound having 20 or more is denoted as AA) | A (a compound having 10 or more and less than 20 is denoted as A) |  |  | Kd ([3]; SPR, Single Cycle Kinetics): 2.3 nM |
| CCCN1C(=O)[C@H](C2CCCC2)N(C)C(=O)C2(CCC2)NC(=O)[C@@H]2C[C@@H](OCC)CN2C(=O)[C@H](CCc2cc(F)c(C(F)(F)F)c(F)c2)NC(=O)CN(C)C(=O)[C@H](Cc2ccc(C(F)(F)F)cc2)N2CCCCC[C@@H](C2=O)N(C)C(=O)CN(C)C(=O)[C@H]([C@@H](C)CC)NC(=O)[C@H](CC(C)C)N(C)C(=O)C[C@H]1C(=O)N1CCOCC1 [PP0639] | 8.5 nM |  |  | B (a compound having 3 or more and less than 10 is denoted as B) | B (a compound having 3 or more and less than 10 is denoted as B) |  |
| CCCN1C(=O)[C@@H]2CCN2C(=O)CN(CC)C(=O)[C@H]([C@@H](C)CC)NC(=O)[C@H](CC(C)C)N(C)C(=O)C[C@@H](C(=O)N2CCOCC2)N(C)C(=O)[C@H](C2CCCC2)N(C)C(=O)C2(CCCC2)NC(=O)[C@@H]2CCCN2C(=O)[C@H](CCc2ccc(C(F)(F)F)c(Cl)c2)NC(=O)CN(C)C(=O)[C@@H]1Cc1ccc(C(F)(F)F)cc1 [PP0259] ([NMeL]I[NEtG][Aze][NPrPhe(4-CF3)][Sar][hPhe(3-Cl-4-CF3)]P[Ac5c][NMeGly(cPent)][NMeD]-Morpholide; lactam N-11) | 0.42 nM | C (A compound having a KD ratio of 0.1 or more and less than 3 is denoted as C) | B (a compound having 3 or more and less than 10 is denoted as B) |  |  |  |
| CC[C@H](C)[C@@H]1NC(=O)[C@H](CC(C)C)N(C)C(=O)C[C@@H](C(=O)N(C)C)N(C)C(=O)[C@H](C2CCCC2)N(C)C(=O)C2(CCCC2)NC(=O)[C@@H]2CC(F)(F)CN2C(=O)[C@H](CCc2cc(F)c(C(F)(F)F)c(F)c2)NC(=O)CN(C)C(=O)[C@H](Cc2ccc(C(F)(F)F)cc2)N2CCCC[C@@H](C2=O)N(C)C(=O)CN(C)C1=O [PP0576] | 0.019 nM |  |  | C (A compound having a KD ratio of 0.1 or more and less than 3 is denoted as C) | B (a compound having 3 or more and less than 10 is denoted as B) |  |
| CCCN1C(=O)CN(C)C(=O)CN(C)C(=O)[C@H]([C@@H](C)CC)NC(=O)[C@H](CC(C)C)N(C)C(=O)C[C@@H](C(=O)N2CCOCC2)N(C)C(=O)[C@H](CC(F)(F)F)N(C)C(=O)C2(CCCC2)NC(=O)[C@@H]2CCCN2C(=O)[C@H](CCc2cc(F)c(C(F)(F)F)c(F)c2)NC(=O)CN(C)C(=O)[C@@H]1Cc1ccc(C(F)(F)F)cc1 [PP0767] ([NMeL]I[Sar][Sar][NPrPhe(4-CF3)][Sar][hPhe(3,5-F2-4-CF3)]P[Ac5c][NMeAbu(4,4,4-F3)][NMeD]-Morpholide; lactam N-11) | 1.9 nM |  |  | B (a compound having 3 or more and less than 10 is denoted as B) | C (A compound having a KD ratio of 0.1 or more and less than 3 is denoted as C) |  |
| CC[C@H](C)[C@@H]1NC(=O)[C@H](C)N(C)C(=O)C[C@@H](C(=O)N2CCOCC2)N(C)C(=O)[C@H](C2CCCC2)N(C)C(=O)C2(CCC2)NC(=O)[C@@H]2CC(F)(F)CN2C(=O)[C@H](CCc2cc(F)c(C(F)(F)F)c(F)c2)NC(=O)CN(C)C(=O)[C@H](Cc2ccc(C(F)(F)F)cc2)N2CCCCC[C@@H](C2=O)N(C)C(=O)CN(C)C1=O [PP0471] | 0.93 nM |  |  | B (a compound having 3 or more and less than 10 is denoted as B) | B (a compound having 3 or more and less than 10 is denoted as B) |  |
| C#CCN1CC(=O)N(C)CC(=O)N(CCC)[C@@H](Cc2ccc(C(F)(F)F)cc2)C(=O)N(C)CC(=O)N[C@@H](CCc2ccc(C(F)(F)F)c(Cl)c2)C(=O)N2CCC[C@H]2C(=O)NC2(CCCC2)C(=O)N(C)[C@@H](C2CCCC2)C(=O)N(C)[C@H](C(=O)N2CCOCC2)CC(=O)N(C)[C@@H](CC(C)C)C(=O)N[C@@H]([C@@H](C)CC)C1=O [PP0750] ([NMeL]I[Gly(N-propargyl)][Sar][NPrPhe(4-CF3)][Sar][hPhe(3-Cl-4-CF3)]P[Ac5c][NMeGly(cPent)][NMeD]-Morpholide; lactam N-11) | 0.37 nM |  |  | B (a compound having 3 or more and less than 10 is denoted as B) | C (A compound having a KD ratio of 0.1 or more and less than 3 is denoted as C) |  |
| CCO[C@@H]1C[C@H]2C(=O)NC3(CC(C)(C)C3)C(=O)N(C)[C@@H](C(CC)CC)C(=O)N(C)[C@H](C(=O)N(C)C)CC(=O)N(C)[C@@H](CC3CCC3)C(=O)N[C@@H]([C@@H](C)CC)C(=O)N(C)CC(=O)N(C)[C@H]3C/C=C\CCN(C3=O)[C@@H](Cc3ccc(C(F)(F)F)cc3)C(=O)N(C)CC(=O)N[C@@H](CCc3cc(F)c(C(F)(F)F)c(F)c3)C(=O)N2C1 [PP2133] |  | AA (a compound having 20 or more is denoted as AA) | A (a compound having 10 or more and less than 20 is denoted as A) |  |  | Kd ([3]; SPR, Single Cycle Kinetics): 0.19 nM |
| CCCN1C(=O)CN(C)C(=O)CN(C)C(=O)[C@H]([C@@H](C)CC)NC(=O)[C@H](CC(C)C)N(C)C(=O)C[C@@H](C(=O)N(C)C)NC(=O)[C@H](C2CCCC2)N(C)C(=O)C2(CCCC2)NC(=O)[C@@H]2CCCN2C(=O)[C@H](CCc2ccc(C(F)(F)F)c(Cl)c2)NC(=O)CN(C)C(=O)[C@@H]1Cc1ccc(C(F)(F)F)cc1 [PP0355] ([NMeL]I[Sar][Sar][NPrPhe(4-CF3)][Sar][hPhe(3-Cl-4-CF3)]P[Ac5c][NMeGly(cPent)]D-NMe2; lactam N-11) | 0.33 nM | B (a compound having 3 or more and less than 10 is denoted as B) | B (a compound having 3 or more and less than 10 is denoted as B) |  |  |  |
| CCO[C@@H]1C[C@H]2C(=O)NC3(CCC3)C(=O)N(C)[C@@H](C3CCCC3)C(=O)N(C)[C@H](C(=O)N(C)C)CC(=O)N(C)[C@@H](CC(C)C)C(=O)N[C@@H]([C@@H](C)CC)C(=O)N(C)CC(=O)N(C)[C@H]3C/C=C\CCN(C3=O)[C@@H](Cc3ccc(F)cc3)C(=O)N(C)CC(=O)N[C@@H](CCc3cc(F)c(C(F)(F)F)c(F)c3)C(=O)N2C1 [PP1488, (2S,8S,12R,14S,20S,23S,27S,30S,36S,38Z)-20-cyclopentyl-8-[2-[3,5-difluoro-4-(trifluoromethyl)phenyl]ethyl]-12-ethoxy-2-[(4-fluorophenyl)methyl]-27-isobutyl-N,N,4,19,22,26,32,35-octamethyl-30-[(1S)-1-methylpropyl]-3,6,9,15,18,21,25,28,31,34,42-undecaoxo-spiro[1,4,7,10,16,19,22,26,29,32,35-undecazatricyclo[34.5.1.0^10,14]dotetracont-38-ene-17,1′-cyclobutane]-23-carboxamide] |  |  |  |  |  | NRAS/KRAS (ratio of KD value for NRAS to KD value for KRAS) ([1]; KD ratio class): A (a compound having 10 or more and less than 20 is denoted as A); HRAS/KRAS (ratio of KD value for HRAS to KD value for KRAS) ([2]; KD ratio class): B (a compound having 3 or more and less than 10 is denoted as B); Kd ([3]; SPR, Single Cycle Kinetics, 1:1 binding model): 0.081 nM |
| CC[C@H](C)[C@@H]1NC(=O)[C@H](CC(C)C)N(C)C(=O)C[C@@H](C(=O)N2CCOCC2)N(C)C(=O)[C@H](C2CCCC2)N(C)C(=O)C2(CCCC2)NC(=O)[C@@H]2CCCN2C(=O)[C@H](CCc2ccc(C(F)(F)F)c(Cl)c2)NC(=O)CN(C)C(=O)[C@H](Cc2ccc(C)cc2)N(CC(C)C)C(=O)CN(C)C(=O)CN(C)C1=O [PP0063] ([NMeL]I[Sar][Sar][X18][Sar][hPhe(3-Cl-4-CF3)]P[Ac5c][NMeGly(cPent)][NMeD]-Morpholide; lactam N-11) | 2.9 nM | C (A compound having a KD ratio of 0.1 or more and less than 3 is denoted as C) | C (A compound having a KD ratio of 0.1 or more and less than 3 is denoted as C) |  |  |  |
